Where only a bound is given, the exact number is not on record here.

From patent US20260285853A1, “COMPOUNDS AND METHODS FOR MODULATING SPLICING” (REMIX THERAPEUTICS INC., priority 2023, published 2026) come the findings set out here.

Format in all cases: cell-based
In assay [1] the test system is HTT mRNA. Description: Gene panel canonical junction qPCR assay, decrease in CJ mRNA, Table 3. To be noted: decrease in CJ mRNA levels, canonical junction qPCR, gene panel. In outline:
(§1)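 Eleven-point dose responses from 10 uM final, 24 h, DMSO ≤0.25%, in A673 or K562 cells. Relative quantification by 2^(−ΔΔCt) against housekeeper and vehicle was converted to percent response over fixed ΔCt windows and fitted to yield IC50.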
(Real-time PCR tracks product formation cycle by cycle.)

Assay [2] concerns MYB mRNA. Described as above. To be noted: decrease in CJ mRNA levels, canonical junction qPCR, gene panel. In a few lines:
as §1

The test system of assay [3] is SH-SY5Y (human neuroblastoma) cells. The assay is described as follows: Cell viability, Cell Titer Glo 2.0 assay. The conditions noted are these: read-out: Viability SHSY5Y.3 GI50. In a few lines:
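Following a 72 h incubation (37 °C, 5% CO2, 0.1% DMSO final), compound toxicity toward SH-SY5Y cells was quantified by CellTiter-Glo 2.0.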

In assay [4] the test system is MYB mRNA. Description: Splicing RT-qPCR assay (THP), Table 2A. The conditions noted are these: Table 2A, THP; for AC50: MYB alternative junction (AJ) mRNA, read-out: MYB AJ (AC50, increase in alternative junction mRNA); for IC50: MYB canonical junction (CJ) mRNA, read-out: MYB CJ (IC50, decrease in canonical junction mRNA).
The subject of assay [5] is HTT mRNA. Description: Splicing RT-qPCR assay (THP), Table 2A. The conditions noted are these: Table 2A, THP; for AC50: HTT alternative junction (AJ) mRNA, read-out: HTT AJ (AC50, increase in alternative junction mRNA); for IC50: HTT canonical junction (CJ) mRNA, read-out: HTT CJ (IC50, decrease in canonical junction mRNA).

On to `CCNC1CCN(c2ccc(C(=O)Nc3cn4cc(C)nc(C)c4n3)c3nc(OC)sc23)CC1` [Compound 670, N-(6,8-dimethyl-imidazo[1,2-a]-pyrazin-2-yl)-7-[4-(ethylamino)-1-piperidyl]-2-methoxy-1,3-benzothiazole-4-carboxamide], for which the half-inhibitory concentration (IC50) (as a rule, the midpoint of a concentration-inhibition curve) in assay [1] is 1 to 10 µM; in assay [2] it was > 10 µM; in assay [4], > 10 µM; in assay [5], 1 to 10 µM. Besides, the GI50 (in general, the concentration at which growth is held to half of that of the control) in assay [3] was > 10 µM. The AC50 in assay [4] and in assay [5] was > 10 µM each time.
`COc1nc2c(C(=O)Nc3cc4cn(C)nc4cc3OC)ccc(N3C[C@H](C)N[C@@H](C)C3)c2s1` [Compound 671, 7-[(3S,5S)-3,5-dimethyl-piperazin-1-yl]-2-methoxy-N-(6-methoxy-2-methyl-indazol-5-yl)-1,3-benzothiazole-4-carboxamide]: the IC50 in assay [1] is > 10 µM; in assay [2], 0.1 to 1 µM; in assay [4], 0.1 to 1 µM; in assay [5], > 10 µM. For the same compound, in assay [3], the GI50 is 1 to 10 µM. The values for the AC50 in assay [4] and in assay [5] were 0.1 to 1 µM and 1 to 10 µM, respectively.
`COc1nc2c(C(=O)Nc3cc(F)c4nn(C)cc4c3)ccc(N3C[C@H](C)N[C@@H](C)C3)c2s1` [Compound 675, 7-[(3S,5S)-3,5-dimethylpiperazin-1-yl]-N-(7-fluoro-2-methyl-indazol-5-yl)-2-methoxy-1,3-benzothiazole-4-carboxamide]: the IC50 in assay [1], in assay [2], in assay [4] and in assay [5] was < 0.1 µM each time. Also, in assay [3], the GI50 is < 0.1 µM. For the same compound, the half-maximal activity concentration (AC50) in assay [4] and in assay [5] was < 0.1 µM in each case.
Regarding `COc1nc2c(N3CCC(NC4CC4)CC3)ccc(C(=O)Nc3cc4cn(C)nc4cc3OC)c2o1` [Compound 679, 4-[4-(cyclopropylamino)-1-piperidyl]-2-methoxy-N-(6-methoxy-2-methyl-indazol-5-yl)-1,3-benzoxazole-7-carboxamide], the IC50 lay in the range of 1 to 10 µM in assay [1], 0.1 to 1 µM in assay [2], 0.1 to 1 µM in assay [4] and 1 to 10 µM in assay [5]. For the same compound, the GI50 in assay [3] is 1 to 10 µM. Moreover, the AC50 – broadly, the concentration at which the activity in the assay is half-maximal – in assay [4] is < 0.1 µM; in assay [5], 1 to 10 µM.
In the case of `COc1nc2c(N3CCC(NC4CC4)CC3)ccc(C(=O)Nc3cn4cc(C)nc(C)c4n3)c2o1` [Compound 680, 4-(4-(cyclopropylamino)-piperidin-1-yl)-N-(6,8-dimethylimidazo-[1,2-a]-pyrazin-2-yl)-2-methoxy-benzo[d]-oxazole-7-carboxamide], the IC50 in assay [1] was > 10 µM; in assay [2] it was 1 to 10 µM; in assay [4], 1 to 10 µM; in assay [5], > 10 µM. Moreover, in assay [3], the GI50 is > 10 µM. Moreover, the AC50 in assay [4] is 1 to 10 µM; in assay [5], > 10 µM.
`COc1nc2c(C(=O)Nc3cc4cn(C)nc4cc3OC)ccc(N3CCC(NC4CC4)CC3)c2o1` [Compound 681, 7-[4-(cyclopropylamino)-1-piperidyl]-2-methoxy-N-(6-methoxy-2-methyl-indazol-5-yl)-1,3-benzoxazole-4-carboxamide]: the IC50 in assay [1], in assay [2], in assay [4] and in assay [5] was 0.1 to 1 µM each time. Moreover, the concentration for 50% growth inhibition (GI50) in assay [3] fell in the range of 0.1 to 1 µM. The values for the AC50 in assay [4] and in assay [5] were < 0.1 µM and 0.1 to 1 µM, respectively.
With `COc1nc2c(C(=O)Nc3cc(F)c4nn(C)cc4c3)ccc(N3C[C@H](C)N[C@@H](C)C3)c2o1` [Compound 682, 7-[(3S,5S)-3,5-dimethylpiperazin-1-yl]-N-(7-fluoro-2-methyl-indazol-5-yl)-2-methoxy-1,3-benzoxazole-4-carboxamide], the IC50 in assay [1] is 0.1 to 1 µM; in assay [2] it was < 0.1 µM; in assay [4] it was < 0.1 µM; in assay [5] it was 0.1 to 1 µM. In addition, the GI50 in assay [3] was < 0.1 µM. Moreover, the AC50 was < 0.1 µM in assay [4] and 0.1 to 1 µM in assay [5].
With `CCNC1C(C)CN(c2ccc(C(=O)Nc3cn4cc(C)nc(C)c4n3)c3nn(C)cc23)CC1C` (stereo not shown) [Compound 686], the half-maximal inhibitory concentration (IC50) in assay [1], in assay [2], in assay [4] and in assay [5] was > 10 µM throughout. For the same compound, the GI50 in assay [3] is > 10 µM. Moreover, the AC50 in assay [4] and in assay [5] was > 10 µM in each case.
Turning to `CCNC1C(C)CN(c2ccc(C(=O)Nc3cc4cn(C)nc4cc3OC)c3nn(C)cc23)CC1C` (stereo not shown) [Compound 687], the IC50 in assay [1] is > 10 µM; in assay [2], 1 to 10 µM; in assay [4], 1 to 10 µM; in assay [5] it was > 10 µM. In addition, the 50% growth inhibitory concentration (GI50) in assay [3] is > 10 µM. Also, the results for the half-maximal activity concentration (AC50) in assay [4] and in assay [5] were 1 to 10 µM and > 10 µM, respectively.
As to `COc1cc2c(N3CCC(NC4CC4)CC3)ccc(C(=O)Nc3cn4cc(C)nc4c(F)c3OC)n2n1` [Compound 688, 4-[4-(cyclopropylamino)-1-piperidyl]-N-(8-fluoro-7-methoxy-2-methyl-imidazo[1,2-a]pyridin-6-yl)-2-methoxy-pyrazolo[1,5-a]pyridine-7-carboxamide], the IC50 in assay [1], in assay [2], in assay [4] and in assay [5] was < 0.1 µM throughout. Besides, the GI50 in assay [3] was < 0.1 µM. Besides, the AC50 in assay [4] is < 0.1 µM; in assay [5], 0.1 to 1 µM.
Turning to `COc1cc2c(N3CCC(NC4CC4)CC3)ccc(C(=O)Nc3cc(F)c4nc(C)cn4c3)n2n1` [Compound 689, 4-[4-(cyclopropylamino)-1-piperidyl]-N-(8-fluoro-2-methyl-imidazo[1,2-a]pyridin-6-yl)-2-methoxy-pyrazolo[1,5-a]pyridine-7-carboxamide], the IC50 in assay [1], in assay [2], in assay [4] and in assay [5] was < 0.1 µM each time. The concentration for 50% growth inhibition (GI50) in assay [3] was < 0.1 µM. In addition, the concentration at half-maximal activity (AC50) is < 0.1 µM in assay [4] and 0.1 to 1 µM in assay [5].
Consider `COc1nc2c(C(=O)Nc3cc(F)c4nc(C)cn4c3)ccc(N3CCC(NC4CC4)CC3)c2o1` [Compound 690, 7-[4-(cyclopropylamino)-1-piperidyl]-N-(8-fluoro-2-methyl-imidazo[1,2-a]pyridin-6-yl)-2-methoxy-1,3-benzoxazole-4-carboxamide], for which the IC50 in assay [1], in assay [2], in assay [4] and in assay [5] was < 0.1 µM each time. The GI50 in assay [3] was 0.1 to 1 µM. Besides, the AC50 in assay [4] was < 0.1 µM; in assay [5] it was 0.1 to 1 µM.
Take `COc1nc2c(N3C[C@H](C)N[C@@H](C)C3)ccc(C(=O)Nc3cc(F)c4nn(C)cc4c3)c2o1` [Compound 691, 4-[(3S,5S)-3,5-dimethylpiperazin-1-yl]-N-(7-fluoro-2-methyl-indazol-5-yl)-2-methoxy-1,3-benzoxazole-7-carboxamide]: the IC50 in assay [1] was > 10 µM; in assay [2], 0.1 to 1 µM; in assay [4], 0.1 to 1 µM; in assay [5] it was > 10 µM. In assay [3], the GI50 lay in the range of 1 to 10 µM. Further, the AC50 in assay [4] was 0.1 to 1 µM; in assay [5] it was > 10 µM.
